Results taken from ChEMBL document CHEMBL2163242, “Development of anti-coxsackievirus agents targeting 3C protease” (Bioorg Med Chem Lett, 2012).

Tests used:
Genome polyprotein = Genome polyprotein (Coxsackievirus B3 (strain Nancy), UniProt P03313); assay: Inhibition of Coxsackievirus B3 protease 3c using NMA-EALFQGPPVK-DNP as substrate incubated for 5 mins prior to substrate addition measured after 1 hr by FRET assay
Coxsackievirus B3 [1] = assay: Antiviral activity against Coxsackievirus B3 H3 infected in HeLa-UVM cells assessed as host cell viability at 1 uM after 6 to 24 hrs by CCK8 assay; type: functional
Coxsackievirus B3 [2] = assay: Antiviral activity against Coxsackievirus B3 H3 infected in HeLa-UVM cells assessed as host cell viability at 0.5 uM after 6 to 24 hrs by CCK8 assay; type: functional
[3] = Aqueous solubility of the compound by HPLC analysis; type: physicochemical; details: buffer
[4] = biological target: Genome polyprotein (Coxsackievirus B3 (strain Nancy)) (UniProt P03313); assay: Inhibition of Coxsackievirus B3 protease 3c using NMA-EALFQGPPVK-DNP as substrate at 10 uM incubated for 5 mins prior to substrate addition measured after 1 hr by FRET assay
Sequence of Genome polyprotein (Coxsackievirus B3 (strain Nancy)) (P03313 whole entry): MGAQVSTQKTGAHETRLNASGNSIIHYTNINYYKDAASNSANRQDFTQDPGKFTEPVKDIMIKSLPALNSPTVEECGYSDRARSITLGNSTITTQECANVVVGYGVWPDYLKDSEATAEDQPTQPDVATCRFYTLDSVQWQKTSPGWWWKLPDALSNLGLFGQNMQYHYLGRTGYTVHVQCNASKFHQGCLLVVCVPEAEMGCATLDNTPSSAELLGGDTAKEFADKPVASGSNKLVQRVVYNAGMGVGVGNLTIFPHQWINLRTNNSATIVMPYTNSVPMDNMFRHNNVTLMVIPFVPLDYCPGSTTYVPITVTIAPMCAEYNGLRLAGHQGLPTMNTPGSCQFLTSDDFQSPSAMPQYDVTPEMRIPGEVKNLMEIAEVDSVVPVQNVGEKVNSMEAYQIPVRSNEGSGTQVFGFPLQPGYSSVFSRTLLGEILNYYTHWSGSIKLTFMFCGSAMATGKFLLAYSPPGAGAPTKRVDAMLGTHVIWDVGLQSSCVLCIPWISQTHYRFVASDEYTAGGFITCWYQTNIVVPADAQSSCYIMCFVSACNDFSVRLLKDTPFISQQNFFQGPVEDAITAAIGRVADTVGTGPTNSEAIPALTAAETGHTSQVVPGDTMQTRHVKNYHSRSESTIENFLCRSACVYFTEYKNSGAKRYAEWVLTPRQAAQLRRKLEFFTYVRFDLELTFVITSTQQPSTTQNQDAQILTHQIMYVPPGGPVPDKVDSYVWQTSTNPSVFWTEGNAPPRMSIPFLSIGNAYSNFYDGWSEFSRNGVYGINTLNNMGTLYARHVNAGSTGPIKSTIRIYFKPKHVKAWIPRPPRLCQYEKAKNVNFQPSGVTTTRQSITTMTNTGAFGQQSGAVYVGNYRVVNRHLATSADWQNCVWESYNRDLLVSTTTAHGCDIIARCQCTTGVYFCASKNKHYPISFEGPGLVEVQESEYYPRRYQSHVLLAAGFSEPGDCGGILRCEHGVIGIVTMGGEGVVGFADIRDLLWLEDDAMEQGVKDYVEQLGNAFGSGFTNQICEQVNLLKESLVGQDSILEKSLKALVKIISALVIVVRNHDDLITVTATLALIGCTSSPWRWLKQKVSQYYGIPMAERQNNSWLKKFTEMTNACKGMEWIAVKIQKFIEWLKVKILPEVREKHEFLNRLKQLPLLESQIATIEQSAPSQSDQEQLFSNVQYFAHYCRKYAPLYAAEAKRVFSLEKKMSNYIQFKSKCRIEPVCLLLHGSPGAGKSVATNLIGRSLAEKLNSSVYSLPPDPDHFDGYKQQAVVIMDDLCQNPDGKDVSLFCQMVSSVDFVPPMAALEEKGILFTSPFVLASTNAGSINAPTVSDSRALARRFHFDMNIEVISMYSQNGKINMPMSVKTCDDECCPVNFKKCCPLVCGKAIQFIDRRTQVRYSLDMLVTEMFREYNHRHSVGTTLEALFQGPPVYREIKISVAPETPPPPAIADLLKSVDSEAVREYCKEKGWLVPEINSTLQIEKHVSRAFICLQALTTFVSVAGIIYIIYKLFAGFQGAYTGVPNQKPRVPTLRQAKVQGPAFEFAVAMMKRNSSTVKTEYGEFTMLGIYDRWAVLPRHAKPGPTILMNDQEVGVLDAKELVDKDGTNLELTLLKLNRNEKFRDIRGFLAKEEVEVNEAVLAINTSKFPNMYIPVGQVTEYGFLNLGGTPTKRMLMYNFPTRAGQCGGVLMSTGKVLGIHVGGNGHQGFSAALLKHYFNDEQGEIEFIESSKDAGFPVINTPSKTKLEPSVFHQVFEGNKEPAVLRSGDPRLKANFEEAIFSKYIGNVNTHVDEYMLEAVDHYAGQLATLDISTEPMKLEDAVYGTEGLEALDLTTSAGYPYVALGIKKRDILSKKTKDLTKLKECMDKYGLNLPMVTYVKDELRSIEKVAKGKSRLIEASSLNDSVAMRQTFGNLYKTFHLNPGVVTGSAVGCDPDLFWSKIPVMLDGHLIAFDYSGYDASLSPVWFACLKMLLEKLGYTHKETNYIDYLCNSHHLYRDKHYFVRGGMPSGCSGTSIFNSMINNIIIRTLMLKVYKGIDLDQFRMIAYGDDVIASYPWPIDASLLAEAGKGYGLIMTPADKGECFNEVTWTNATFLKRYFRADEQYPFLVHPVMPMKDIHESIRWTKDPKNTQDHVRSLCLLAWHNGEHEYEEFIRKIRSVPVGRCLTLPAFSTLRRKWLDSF

Sequence of Genome polyprotein (P03313 1541-1723 limits assumed): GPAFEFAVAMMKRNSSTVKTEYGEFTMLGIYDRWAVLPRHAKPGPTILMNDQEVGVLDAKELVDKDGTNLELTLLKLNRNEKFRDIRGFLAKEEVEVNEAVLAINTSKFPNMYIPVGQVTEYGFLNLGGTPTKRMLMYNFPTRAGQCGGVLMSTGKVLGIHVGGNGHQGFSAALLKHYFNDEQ

`Cc1cc(C(=O)N[C@H](C(=O)N[C@@H](Cc2ccc(F)cc2)C(=O)N[C@@H](/C=C/C(=O)OCc2ccc3cn[nH]c3c2)CCC(N)=O)C(C)C)no1` showed an IC50 (Genome polyprotein) of 390 nM and an Activity (Coxsackievirus B3 [1]) of 50%.

`Cc1cc(C(=O)N[C@H](C(=O)N[C@@H](Cc2ccc(F)cc2)C(=O)N[C@@H](/C=C/C(=O)OCc2nc3ccccc3[nH]2)CCC(N)=O)C(C)C)no1` showed an IC50 (Genome polyprotein) of 240 nM and an Activity (Coxsackievirus B3 [1]) of 50%.

`Cc1cc(C(=O)N[C@H](C(=O)N[C@@H](Cc2ccc(F)cc2)C(=O)N[C@@H](/C=C/C(=O)OCc2cccc3cnccc23)CCC(N)=O)C(C)C)no1` showed an IC50 (Genome polyprotein) of 270 nM and an Activity (Coxsackievirus B3 [1]) of 50%.

`Cc1cc(C(=O)N[C@H](C(=O)N[C@@H](Cc2ccc(F)cc2)C(=O)N[C@@H](/C=C/C(=O)OCc2ccc3cnccc3c2)CCC(N)=O)C(C)C)no1` showed an IC50 (Genome polyprotein) of 240 nM and an Activity (Coxsackievirus B3 [1]) of 50%.

In the case of `Cc1cc(C(=O)N[C@H](C(=O)N[C@@H](Cc2ccc(F)cc2)C(=O)N[C@@H](/C=C/C(=O)OCc2ccc3[nH]ncc3c2)CCC(N)=O)C(C)C)no1`, the IC50 (Genome polyprotein) is reported as 180 nM and the Activity (Coxsackievirus B3 [1]) is reported as 50%.

For `Cc1cc(C(=O)N[C@H](C(=O)N[C@@H](Cc2ccc(F)cc2)C(=O)N[C@@H](/C=C/C(=O)OCc2cn3cccc(C)c3n2)CCC(N)=O)C(C)C)no1`, the IC50 (Genome polyprotein) was 170 nM and the Activity (Coxsackievirus B3 [1]) was 50%.

Compound `Cc1cc(C(=O)N[C@H](C(=O)N[C@@H](Cc2ccc(F)cc2)C(=O)N[C@@H](/C=C/C(=O)OCc2ccnc3ccccc23)CCC(N)=O)C(C)C)no1` has an Activity (Coxsackievirus B3 [2]) of 50%, an IC50 (Genome polyprotein) of 130 nM and an Activity (Coxsackievirus B3 [1]) of 50%.

`Cc1cc(C(=O)N[C@H](C(=O)N[C@@H](Cc2ccc(F)cc2)C(=O)N[C@@H](/C=C/C(=O)OCc2cccc3ncccc23)CCC(N)=O)C(C)C)no1` showed an IC50 (Genome polyprotein) of 280 nM and an Activity (Coxsackievirus B3 [1]) of 50%.

In the case of `Cc1cc(C(=O)N[C@H](C(=O)N[C@@H](Cc2ccc(F)cc2)C(=O)N[C@@H](/C=C/C(=O)OCc2ccc3[nH]ncc3c2)CCC(N)=O)C(C)C)no1.Cl`, the solubility [3] is reported as “soluble”.

`Cc1cc(C(=O)N[C@H](C(=O)N[C@@H](Cc2ccc(F)cc2)C(=O)O)C(C)C)no1` gave an inhibition [4] of 33.5%.

`Cc1cc(C(=O)N[C@H](C(=O)N[C@@H](Cc2ccc(F)cc2)C(=O)N[C@@H](/C=C/C(=O)OCc2cn3c(C)cccc3n2)CCC(N)=O)C(C)C)no1` gave an IC50 (Genome polyprotein) of 160 nM and an Activity (Coxsackievirus B3 [1]) of 50%.

Work on `Cc1cc(C(=O)N[C@H](C(=O)N[C@@H](Cc2ccc(F)cc2)C(=O)N[C@@H](/C=C/C(=O)OCc2ccc3ccccc3c2)CCC(N)=O)C(C)C)no1` yielded an IC50 (Genome polyprotein) of 410 nM and an Activity (Coxsackievirus B3 [1]) of 50%.

`Cc1cc(C(=O)N[C@H](C(=O)N[C@@H](Cc2ccc(F)cc2)C(=O)N[C@@H](/C=C/C(=O)OCc2nc(-c3ccncc3)no2)CCC(N)=O)C(C)C)no1` showed an IC50 (Genome polyprotein) of 650 nM and an Activity (Coxsackievirus B3 [1]) of 50%.

Work on `Cc1cc(C(=O)N[C@H](C(=O)N[C@@H](Cc2ccc(F)cc2)C(=O)N[C@@H](/C=C/C(=O)OCc2nc3cc(Cl)ccc3[nH]2)CCC(N)=O)C(C)C)no1` yielded an IC50 (Genome polyprotein) of 650 nM and an Activity (Coxsackievirus B3 [1]) of 50%.

With `Cc1cc(C(=O)N[C@H](C(=O)N[C@@H](Cc2ccc(F)cc2)C(=O)N[C@@H](/C=C/C(=O)OCc2ccc3nc[nH]c3c2)CCC(N)=O)C(C)C)no1` the IC50 (Genome polyprotein) was 470 nM and the Activity (Coxsackievirus B3 [1]) was 50%.

`Cc1cc(C(=O)N[C@H](C(=O)N[C@@H](Cc2ccc(F)cc2)C(=O)N[C@@H](/C=C/C(=O)OCc2cnc3ccccc3c2)CCC(N)=O)C(C)C)no1` showed an Activity (Coxsackievirus B3 [2]) of 50%, an IC50 (Genome polyprotein) of 250 nM and an Activity (Coxsackievirus B3 [1]) of 50%.
